Data as given in PubChem BioAssay AID1963852 (Molecular Pharmacology Branch, DTP, NCI, 2024).
Where “and” joins values, the source holds several entries; their conditions need not be identical. Equal entries are not always repeated.

System: 282377-053-R-J1-PDC complex spheroid viability
Test: Anticancer human tumor 282377-053-R-J1-PDC patient-derived colon adenocarcinoma cell line growth inhibition [POLQ]
Settings: for viability, T/C: stronger effect = lower value
Method: Multicellular complex tumor spheroid response to Polymerase (POL) inhibitors (novobiocin, ART-558, RP6685) in combination with a variety of drugs and investigational agents in selected tumor cell lines
The POL inhibitors (novobiocin, ART-558, and RP6685) were evaluated both individually and in combination with standard of care and investigational anticancer small molecules within a complex spheroid model of solid tumors. . Complex spheroids include a stromal component modeled by human endothelial cells (HUVEC) and fibroblasts modeled by human mesenchymal stem cells (MSCs). The concentration ranges selected for each drug and investigational agent were based upon clinically achievable concentrations if the clinical Cmax of the agent was known.
Compounds. The drugs and investigational agents: novobiocin (NSC847541), ART-558 (NSC835418), RP-6685 (NSC848927), peposertib (NSC802822), ceralasertib (NSC780249), elimusertib (NSC800525), camonsertib (NSC841442), AZD-1390 (NSC803789), olaparib (NSC753686), talazoparib (NSC767125), rucaparib (NSC756644), sotorasib (NSC818433), MRTX-1133 (NSC836407), SN-38 (NSC673596), topotecan (NSC609699), epotoside (NSC141540), doxorubicin (NSC123127), gemcitabine (NSC613327), 5-fluorouracil (NSC19893), paclitaxel (NSC125973), vemurafenib (NSC761431), MSA-2 (NSC828583), SN-011 (NSC837082), adavosertib (NSC754352), prexasertib (NSC758257), carboplatin (NSC241240) and oxaliplatin (NSC266046), were obtained from the National Cancer Institute (NCI) Developmental Therapeutics Program Chemical Repository (21). The FDA-approved anticancer drug set is available from the Developmental Therapeutics Program at https://dtp.cancer.gov/organization/dscb/obtaining/. […] The stock solutions were prepared in dimethyl sulfoxide (DMSO, Sigma-Aldrich, St. Louis, MO, cat. D2650), except for the platinum compounds which were prepared in saline (Quality Biological, Gaithersburg, MD, cat. 114-055-101), at 800-fold the tested concentration and stored at -70 degrees C prior to their use. All drugs and investigational agents were tested over a range starting from a high concentration at or near the clinical Cmax and decreasing in half-log increments. If the clinical Cmax for an agent had not been determined, the highest concentration tested was 10 microM, except for SN-38, which was tested at a high concentration of 1 microM.
Cell Culture. All cells were maintained in an incubator at 37 degrees C and 5% CO2 with 95% humidity. The PDC lines were cultured according to standard operating procedures established by the NCI PDMR (https://pdmr.cancer.gov). Table 3 of the manuscript, lists the cell lines along with the number of the three cell types plated to form the mct-spheroids and media for tumor cell growth. After thawing, all PDC lines, except 997537-175-T-J1-PDC and 415267-285-R-J2-PDC, were cultured in Matrigel-coated flasks prepared with a working solution of 1X Ham's F-12 nutrient mix, without supplementation (Thermo Fisher Scientific, cat. 11765054), 100 U/mL penicillin-streptomycin (Thermo Fisher Scientific, cat. 15140122), and 2.5% Matrigel (Corning Inc., Corning, NY, cat. 354248) for the first three passages. The two PDC lines 997537-175-T-J1-PDC and 415267-285-R-J2-PDC were cultured on uncoated flasks. The 857933-349-R-J2-PDC line was cultured in 6C/Colon 1B media containing advanced DMEM/F-12 (Thermo Fisher Scientific, cat. 12634028), 10 mM HEPES (Thermo Fisher Scientific, cat. 15630080), 1X GlutaMAX supplement (Thermo Fisher Scientific, cat. 35050061), 0.1 mg/mL primocin (InvivoGen, San Diego, CA, cat. ant-pm-2), 10% defined fetal bovine serum, heat inactivated (HyClone Laboratories Inc., Logan, UT, cat. SH30070.03HI), 50% L-WRN conditioned media (ATCC, cat. CRL-3276), 1.25 mM N-Acetyl-L-cysteine (Sigma-Aldrich, cat. A9165), 10 mM nicotinamide (Sigma-Aldrich, cat. N0636), 1X B-27 supplement (Thermo Fisher Scientific, cat. 17504044), 1X N-2 supplement (Thermo Fisher Scientific, cat. […]
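Also: spheroids exposed to compounds for seven days.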
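For viability, T/C in this document: 100% = DMSO vehicle control viability.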

Structure (SMILES) | viability, T/C (compound 0.0316 µM) | viability, T/C (compound 0.1 µM) | viability, T/C (compound 0.316 µM) | viability, T/C (compound 1 µM) | viability, T/C (compound 3.16 µM) | viability, T/C (compound 10 µM) | IC50 (curve of compound) | IC50 (compound alone, run of 10/31/2023) [µM] | viability, T/C (compound 0.00316 µM) | viability, T/C (compound 0.01 µM)
CNCc1ccc(-c2[nH]c3cc(F)cc4c3c2CCNC4=O)cc1 | 94% and 107% and 86.8% | 89.3% and 94.2% and 86.3% | 113% and 102% and 114% | 117% and 101% and 95.7% | 128% and 105% and 116% | 125% and 115% and 151% | > 10 µM |  |  | 
COC1C(OC(N)=O)C(O)C(Oc2ccc3c(O)c(NC(=O)c4ccc(O)c(CC=C(C)C)c4)c(=O)oc3c2C)OC1(C)C (stereo not drawn) | 94.6% [middle of 13 runs] |  | 105% [middle of 13 runs] | 101% [middle of 13 runs] | 101% [middle of 13 runs] | 101% [middle of 13 runs] |  | > 10 |  | 
COc1cc(C2c3cc4c(cc3C(OC3OC5COC(C)OC5C(O)C3O)C3COC(=O)C23)OCO4)cc(OC)c1O (stereo not drawn) | 86.7% and 90% and 76.8% | 108% and 96.2% and 104% | 94.2% and 108% and 83% | 124% and 104% and 96.8% | 82.7% and 105% and 70.8% | 58% and 81.8% and 50.9% | > 10 µM |  |  | 
COc1cc2cc(C(=O)CCC(=O)O)sc2cc1OC | 94.6% and 86.1% and 105% | 98.1% and 93.6% and 93.2% | 108% and 97% and 105% | 111% and 96.9% and 98.6% | 103% and 107% and 127% | 93.6% and 102% and 101% | > 10 µM |  |  | 
COc1ccc([C@@H](O)c2cc(-c3ncnc4cc(N5CCOCC5)ccc34)c(F)cc2Cl)nn1 | 95.7% and 94.3% and 98.1% | 92.2% and 99.3% and 91.8% | 112% and 94.1% and 106% | 88.9% and 98.7% and 102% | 82.5% and 101% and 87.2% | 71.8% and 84.8% and 82.2% | > 10 µM |  |  | 
COc1cccc(OCCCN)c1-c1cc(Nc2cnc(C#N)cn2)n[nH]1 | 76.9% and 82.1% and 72.1% | 49.5% and 74.7% and 75.6% | 37.2% and 63.1% and 52.5% | 26.8% and 44% and 43.3% |  |  | 0.112 µM and 0.731 µM and 0.534 µM |  | 107% and 99.4% and 101% | 94.1% and 89.1% and 85.9%
COc1cccc2c1C(=O)c1c(O)c3c(c(O)c1C2=O)CC(O)(C(=O)CO)CC3OC1CC(N)C(O)C(C)O1 (stereo not drawn) | 98.8% and 96% and 104% | 83.9% and 92.9% and 87.7% | 62.9% and 125% and 50.8% | 17.3% and 111% and 20.5% | 0.93% and 18.7% and 1.37% | 2.95% and 3.23% and 2.45% | 0.421 µM and 2.09 µM and 0.336 µM |  |  | 
